Experimental findings from publication PMC7180739, “Aggregation and Molecular Properties of β-Glucosidase Isoform II in Chayote (Sechium edule)” (Molecules, 2020) are described below.

In this assay the test system is T1, β-glucosidase isoform II (β-glucosidase II, Sebg).
T1 construct: native, purified from fruit epicarp and mesocarp
In words: p-nitrophenol release, nonlinear regression. In kind it is biochemical, Sechium edule. Conditions: 40 °C, 0.2 M sodium citrate pH 5.0 (pH 5.5). The text has this:
p-nitrophenol release, nonlinear regression on β-glucosidase isoform II (β-glucosidase II, Sebg)
For the molecule `O=[N+]([O-])c1ccc(O[C@@H]2O[C@H](CO)[C@H](O)[C@H](O)[C@H]2O)cc1` [pNPGal, p-Nitrophenyl-β-D-galactopyranoside], the Km turned out to be 5.72 ± 0.45 mM.
With `C[C@H]1O[C@@H](Oc2ccc([N+](=O)[O-])cc2)[C@H](O)[C@@H](O)[C@H]1O` [pNPFuc, p-Nitrophenyl-β-D-fucopyranoside] the figure was 16.1 ± 2.62 mM; with `O=[N+]([O-])c1ccc(O[C@@H]2O[C@H](CO)[C@@H](O)[C@H](O)[C@H]2O)cc1` [pNPGlc, p-Nitrophenyl-β-D-glucopyranoside], 4.59 ± 0.49 mM.

One may read the Km as the substrate concentration at which the rate is half of its maximum.
